Experiments:
Assay type in all cases: in vivo
[1] = system: APOE*3Leiden transgenic mice; assay: Plasma cholesterol in APOE*3Leiden transgenic mice fed a Western-type diet with sphingolipid
Text: (§1) In this experiment mice were used in which the human gene for the so-called Leiden mutation of apolipoprotein E3 (APOE*3Leiden transgenic mice) had been incorporated by transgenesis. Because of this transgenic change, these so-called APOE*3Leiden mice have a humanized lipoprotein profile, and are extremely suitable for studying the effect of compounds on lipoprotein metabolism (Van Vlijmen et. al. 1996. J Clin Invest. 97:1184-1192; Van Vlijmen et. al. 1998. Arzneimittelforschung 1998; 48:396-402.).
(§2) The study design was as follows: female mice were fed for 5 weeks “Western-type” diet (Nishina et al. 1990. J Lipid Res. 31:859-869) containing 0.25% (w/w) cholesterol. Specifically, the diet contained 15% (all w/w) cocoabutter, 0.25% cholesterol, 1% corn oil, 40.5% sucrose, 20% acid casein, 10% corn starch and 5.95% cellulose, as major ingredients. This diet increased their plasma cholesterol level to about 15 mmol/L. Subsequently, the mice were randomized, on the basis of their plasma cholesterol level, into groups of six mice each. These groups were given the same diet, but containing in addition: • Group 1 no addition • Group 2 0.1% (w/w) phytosphingosine • Group 3 0.1% (w/w) sphingosine • Group 4 0.1% (w/w) sphinganine • Group 5 0.1% (w/w) cerebroside • Group 6 0.1% (w/w) ceramide IV • Group 7 0.1% (w/w) sphingomyelin
(§3) The phytosphingosine, ceramide IV and cerebroside (=glucosyl ceramide) were obtained from Cosmoferm BV (Delft, The Netherlands). Sphingomyelin from egg was obtained from Larodan Fine Chemicals AB (Stockholm, Sweden) and sphingosine and sphinganine were obtained from Avanti Polar Lipids Inc, (Alabaster, Ala., USA). During the experiment, body weight and food intake were monitored. At three weeks after the dietary change, blood was taken to determine plasma cholesterol and triglyceride levels. Also, the plasma lipoprotein pattern was determined group wise in pooled samples by fplc. Then, the concentration of the additives was changed to 0.2%, and feeding continued for another 3 weeks. At three weeks after this dietary change, blood was again taken to determine plasma cholesterol and triglyceride levels, and the plasma lipoprotein pattern was determined group wise in pooled samples by fplc. The dietary additives were then changed to 0.4% (w/w), and the same cycle of feeding and blood sampling was executed.
(§4) In a separate experiment, groups of six APOE*3Leiden mice were fed the above-described Western-type diet, containing 1.0% (w/w) of phytosphingosine. At the end of the treatment period, plasma cholesterol was reduced with 58% (p=0.007) and plasma triglyceride was reduced with 64% (p=0.01) with respect to the control group.

[2] = system: APOE*3Leiden transgenic mice; assay: Plasma triglycerides in APOE*3Leiden transgenic mice fed a Western-type diet with sphingolipid
Text: as §1, §2, §3, §4

[3] = system: APOE*3Leiden transgenic mice; assay: Plasma lipoprotein distribution pattern by fplc in pooled samples; settings: separate experiment, 1.0% (w/w) in diet
Text: as §3, with “executed. […] In a separate experiment, groups of six APOE*3Leiden mice were fed the above-described Western-type diet, containing 1.0% (w/w) of phytosphingosine. At the end of the treatment period, plasma cholesterol was reduced with 58% (p=0.007) and plasma triglyceride was reduced with 64% (p=0.01) with respect to the control group.” for “executed.”

[4] = t = 0, baseline after 5 weeks Western-type diet, before addition of sphingolipid, female mice, group mean
[5] = t = 3 (weeks), 0.1% (w/w) in diet
[6] = t = 6 (weeks), 0.2% in diet for the last 3 weeks
[7] = t = 9 (weeks), 0.4% (w/w) in diet for the last 3 weeks

In the case of ceramide IV, the Plasma cholesterol levels [1, 4] is reported as 15.6 mmol/L, the Plasma cholesterol levels [1, 5] is reported as 14.8 mmol/L and the “Plasma cholesterol reduction relative to control” value ([1]; t = 3 (weeks), 0.1% in diet) is reported as 1.5%. For the same compound, the “Plasma cholesterol reduction relative to control” value ([1]; t = 6 (weeks), 0.2% in diet) was 19.4%, the Plasma cholesterol levels [1, 6] was 12.6 mmol/L and the Plasma cholesterol levels [1, 7] was 11.7 mmol/L. The “Plasma cholesterol reduction relative to control” value ([1]; t = 9 (weeks), 0.4% in diet) was 29.9%, the Plasma triglyceride levels [2, 4] was 2.3 mmol/L and the Plasma triglyceride levels [2, 5] was 2.0 mmol/L. The “Plasma triglyceride reduction relative to control” value ([2]; t = 3 (weeks), 0.1% in diet) was 8.5%, the “Plasma triglyceride reduction relative to control” value ([2]; t = 6 (weeks), 0.2% in diet) was 49.1% and the Plasma triglyceride levels [2, 6] was 1.1 mmol/L. For the same compound, the Plasma triglyceride levels [2, 7] was 1.4 mmol/L and the “Plasma triglyceride reduction relative to control” value ([2]; t = 9 (weeks), 0.4% in diet) was 38.4%.

In the case of glucosyl ceramide [CEREBROSIDE], the Plasma cholesterol levels [1, 4] is reported as 14.8 mmol/L, the Plasma cholesterol levels [1, 5] is reported as 14.2 mmol/L and the “Plasma cholesterol reduction relative to control” value ([1]; t = 3 (weeks), 0.1% in diet) is reported as 5.2%. For the same compound, the “Plasma cholesterol reduction relative to control” value ([1]; t = 6 (weeks), 0.2% in diet) was 25.6%, the Plasma cholesterol levels [1, 6] was 11.7 mmol/L and the Plasma cholesterol levels [1, 7] was 12.8 mmol/L. For the same compound, the “Plasma cholesterol reduction relative to control” value ([1]; t = 9 (weeks), 0.4% in diet) was 23.4%, the Plasma triglyceride levels [2, 4] was 2.2 mmol/L and the Plasma triglyceride levels [2, 5] was 2.2 mmol/L. The “Plasma triglyceride reduction relative to control” value ([2]; t = 3 (weeks), 0.1% in diet) was −1.2%, the “Plasma triglyceride reduction relative to control” value ([2]; t = 6 (weeks), 0.2% in diet) was 42.0% and the Plasma triglyceride levels [2, 6] was 1.2 mmol/L. The Plasma triglyceride levels [2, 7] was 1.8 mmol/L and the “Plasma triglyceride reduction relative to control” value ([2]; t = 9 (weeks), 0.4% in diet) was 21.9%.

In the case of `CCCCCCCCCCCCCCC[C@@H](O)[C@@H](N)CO` [SPHINGANINE, sphinganine], the Plasma cholesterol levels [1, 4] is reported as 15.9 mmol/L, the Plasma cholesterol levels [1, 5] is reported as 14.9 mmol/L and the “Plasma cholesterol reduction relative to control” value ([1]; t = 3 (weeks), 0.1% in diet) is reported as 0.3%. The “Plasma cholesterol reduction relative to control” value ([1]; t = 6 (weeks), 0.2% in diet) was 36.2%, the Plasma cholesterol levels [1, 6] was 10.0 mmol/L and the Plasma cholesterol levels [1, 7] was 11.5 mmol/L. The “Plasma cholesterol reduction relative to control” value ([1]; t = 9 (weeks), 0.4% in diet) was 31.2%, the Plasma triglyceride levels [2, 4] was 2.3 mmol/L and the Plasma triglyceride levels [2, 5] was 1.7 mmol/L. For the same compound, the “Plasma triglyceride reduction relative to control” value ([2]; t = 3 (weeks), 0.1% in diet) was 19.2%, the “Plasma triglyceride reduction relative to control” value ([2]; t = 6 (weeks), 0.2% in diet) was 52.9% and the Plasma triglyceride levels [2, 6] was 1.0 mmol/L. For the same compound, the Plasma triglyceride levels [2, 7] was 1.2 mmol/L and the “Plasma triglyceride reduction relative to control” value ([2]; t = 9 (weeks), 0.4% in diet) was 44.9%.

For sphingomyelin, the Plasma cholesterol levels [1, 4] was 15.1 mmol/L, the Plasma cholesterol levels [1, 5] was 14.7 mmol/L and the “Plasma cholesterol reduction relative to control” value ([1]; t = 3 (weeks), 0.1% in diet) was 1.9%. The “Plasma cholesterol reduction relative to control” value ([1]; t = 6 (weeks), 0.2% in diet) was 36.8%, the Plasma cholesterol levels [1, 6] was 9.9 mmol/L and the Plasma cholesterol levels [1, 7] was 8.7 mmol/L. The “Plasma cholesterol reduction relative to control” value ([1]; t = 9 (weeks), 0.4% in diet) was 48.2%, the Plasma triglyceride levels [2, 4] was 2.5 mmol/L and the Plasma triglyceride levels [2, 5] was 1.7 mmol/L. For the same compound, the “Plasma triglyceride reduction relative to control” value ([2]; t = 3 (weeks), 0.1% in diet) was 19.9%, the “Plasma triglyceride reduction relative to control” value ([2]; t = 6 (weeks), 0.2% in diet) was 42.7% and the Plasma triglyceride levels [2, 6] was 1.2 mmol/L. For the same compound, the Plasma triglyceride levels [2, 7] was 0.9 mmol/L and the “Plasma triglyceride reduction relative to control” value ([2]; t = 9 (weeks), 0.4% in diet) was 59.5%.

`CCCCCCCCCCCCCC[C@@H](O)[C@@H](O)[C@@H](N)CO` [PHYTOSPHINGOSINE, phytosphingosine] was tested, and the “plasma cholesterol reduced with respect to the control group” value ([1]; separate experiment, 1.0% (w/w) in Western-type diet, end of treatment period, p=0.007) was 58%, the Plasma cholesterol levels [1, 4] was 14.4 mmol/L and the Plasma cholesterol levels [1, 5] was 13.2 mmol/L. The “Plasma cholesterol reduction relative to control” value ([1]; t = 3 (weeks), 0.1% in diet) was 11.6%, the “Plasma cholesterol reduction relative to control” value ([1]; t = 6 (weeks), 0.2% in diet) was 19.7% and the Plasma cholesterol levels [1, 6] was 12.6 mmol/L. For the same compound, the Plasma cholesterol levels [1, 7] was 10.9 mmol/L, the “Plasma cholesterol reduction relative to control” value ([1]; t = 9 (weeks), 0.4% in diet) was 34.8% and the “plasma triglyceride reduced with respect to the control group” value ([2]; separate experiment, 1.0% (w/w) in Western-type diet, end of treatment period, p=0.01) was 64%. The Plasma triglyceride levels [2, 4] was 2.1 mmol/L, the Plasma triglyceride levels [2, 5] was 1.7 mmol/L and the “Plasma triglyceride reduction relative to control” value ([2]; t = 3 (weeks), 0.1% in diet) was 22.9%. The “Plasma triglyceride reduction relative to control” value ([2]; t = 6 (weeks), 0.2% in diet) was 39.8%, the Plasma triglyceride levels [2, 6] was 1.2 mmol/L and the Plasma triglyceride levels [2, 7] was 1.5 mmol/L. The “Plasma triglyceride reduction relative to control” value ([2]; t = 9 (weeks), 0.4% in diet) was 34.8% and the “lipoprotein fractions accounting for the decrease of cholesterol and triglycerides (fplc)” value [3] was “fully due to a decrease in VLDL and IDL/LDL fractions”.

In the case of `CCCCCCCCCCCCC/C=C/[C@@H](O)[C@@H](N)CO` [SPHINGOSINE, sphingosine], the Plasma cholesterol levels [1, 4] is reported as 14.6 mmol/L, the Plasma cholesterol levels [1, 5] is reported as 15.3 mmol/L and the “Plasma cholesterol reduction relative to control” value ([1]; t = 3 (weeks), 0.1% in diet) is reported as −2.1%. The “Plasma cholesterol reduction relative to control” value ([1]; t = 6 (weeks), 0.2% in diet) was 29.7%, the Plasma cholesterol levels [1, 6] was 11.0 mmol/L and the Plasma cholesterol levels [1, 7] was 9.5 mmol/L. The “Plasma cholesterol reduction relative to control” value ([1]; t = 9 (weeks), 0.4% in diet) was 43.3%, the Plasma triglyceride levels [2, 4] was 2.3 mmol/L and the Plasma triglyceride levels [2, 5] was 2.2 mmol/L. For the same compound, the “Plasma triglyceride reduction relative to control” value ([2]; t = 3 (weeks), 0.1% in diet) was −0.6%, the “Plasma triglyceride reduction relative to control” value ([2]; t = 6 (weeks), 0.2% in diet) was 32.5% and the Plasma triglyceride levels [2, 6] was 1.4 mmol/L. The Plasma triglyceride levels [2, 7] was 1.0 mmol/L and the “Plasma triglyceride reduction relative to control” value ([2]; t = 9 (weeks), 0.4% in diet) was 54.3%.

Reference: patent US7968529B2, “Use of sphingolipids for reducing high plasma cholesterol and high triacylglycerol levels” (Nederlandse Organisatie Voor …, priority 2003, dated 2011)
